Columns and labels:
[1] = (§1) After a 3-day incubation at 37° C. cell viability was determined by the MTT method as described by Pauwels et al. (J. Virol. Methods 1988, 20, 309-321).To determine the cytotoxicity, cells were seeded at an initial density of 1×10^6 cells/mL in 96 well plates containing Minimum Essential Medium with Earles's salts (MEM-E), L-glutamine, 1 mM sodium pyruvate and 25 mg/L kanamycin, supplemented with 10% fetal bovine serum. Cell cultures were then incubated at 37° C. in a humidified 5% CO2 atmosphere in the absence or presence of serial dilutions of test compounds. Cell viability was determined by the MTT method.; type: cell-based
[2] = as §1; type: cell-based; remark: listed apart in the source

Measured: EC50

CC(C)OC(=O)[C@H](C)N[P@](=O)(OCC1O[C@@H](n2ccc(=O)[nH]c2=O)[C@](C)(F)[C@@H]1O)Oc1ccccc1 (some centres undefined)
> 100 µM: [1] | [1]; 72 h | [2] | [2]; BHK-21, 72 h
